Source: PMC11876601 (Molecular Systems Biology, 2025)
Where “and” joins values, the source holds several entries; their conditions need not be identical. Equal entries are not always repeated. Where two headings read alike, the source gives them in different places.

Legend:
AsPC-1 cells = assay: Cell proliferation assay, chemodrug + ATR inhibitor (Incucyte confluence, 72 h); settings: for Curve bottom / Curve slope / Curve top: fitted dose-response curve; for Curve bottom / Curve top: relative response; for Raw data (confluence at 72 h/confluence at 0 h): Berzosertib experiment; for EC50: Homo sapiens;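 as to all read-outs here: underlying read-out for every value is AsPC-1 confluence after 72 h incubation at 37 °C and 5% CO2, divided by that well's starting confluence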
Experimental: (§1) Cells were seeded at 5000 cells/well into 96-well flat bottom plates (Eppendorf) and allowed to attach overnight. […] Cells were incubated for 72 h at 37 °C and 5% CO2. Cell confluence readouts at 72 h were either normalized to their initial confluence using the Incucyte software (AsPC-1) or used without prior normalization (all others). […] Each experiment was performed in triplicates, the data was plotted as mean ± standard deviation (s.d.).

PANC-1 cells = assay: Cell proliferation assay, GEM + ATR inhibitor (Incucyte confluence, 72 h); settings: for EC50: Homo sapiens; for Curve bottom / Curve top: PANC-1, plateau of fitted curve, ratio drug/vehicle confluence;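 as to EC50: in combination experiments GEM is titrated while ATRi is held at a fixed sub-EC50 dose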;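 as to all read-outs here: PANC-1 confluence at 72 h taken as raw values, not normalized to starting confluence, with each experiment run in triplicate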
Experimental: as §1

[1] = AsPC1, Experiment GEM+ATRi_dose1
[2] = AsPC1, Experiment GEM+ATRi_dose2
[3] = AsPC1, Experiment GEM+ATRi_dose3

CNCc1ccc(-c2cc(-c3nc(-c4ccc(S(=O)(=O)C(C)C)cc4)cnc3N)on2)cc1 [Berzosertib]
Curve bottom (AsPC-1 cells; AsPC1, Experiment ATRi (ATR inhibitor alone)): 1.08 and 1.02 and 1.03
Curve slope (AsPC-1 cells; [1]): 1.49 and 1.39 and 2.10
Curve bottom (AsPC-1 cells; [1]): 1.02 and 0.99 and 0.96
Curve top (AsPC-1 cells; [1]): 0.52 and 0.41 and 0.43
Curve bottom (AsPC-1 cells; [2]): 1.02 and 0.89 and 0.87
Curve top (AsPC-1 cells; [2]): 0.47 and 0.41
Curve slope (AsPC-1 cells; [3]): 1.48 and 2.60 and 1.95
Curve bottom (AsPC-1 cells; [3]): 1.02 and 0.71 and 0.76
Curve top (AsPC-1 cells; [3]): 0.44 and 0.38 and 0.37
Response (AsPC-1 cells; AsPC1, GEM 100 nM + ATRi 30 nM): 1.96
Response (AsPC-1 cells; AsPC1, GEM 300 nM + ATRi 30 nM): 1.76
Response (AsPC-1 cells; AsPC1, GEM 1000 nM + ATRi 30 nM): 1.64
Response (AsPC-1 cells; AsPC1, GEM 3000 nM + ATRi 30 nM): 1.69
Raw data (confluence at 72 h/confluence at 0 h) (AsPC-1 cells; replicate R2, titrated drug dose 100 nM): 1.63
Raw data (confluence at 72 h/confluence at 0 h) (AsPC-1 cells; replicate R2, titrated drug dose 300 nM): 3.32
Raw data (confluence at 72 h/confluence at 0 h) (AsPC-1 cells; replicate R2, titrated drug dose 1000 nM): 1.81
Raw data (confluence at 72 h/confluence at 0 h) (AsPC-1 cells; replicate R2, titrated drug dose 3000 nM): 0.95
Raw data (confluence at 72 h/confluence at 0 h) (AsPC-1 cells; replicate R2, titrated drug dose 10000 nM): 1.02
Raw data (confluence at 72 h/confluence at 0 h) (AsPC-1 cells; replicate R3, titrated drug dose 3 nM): 3.53
Raw data (confluence at 72 h/confluence at 0 h) (AsPC-1 cells; replicate R3, titrated drug dose 10 nM): 3.58
Raw data (confluence at 72 h/confluence at 0 h) (AsPC-1 cells; replicate R3, titrated drug dose 30 nM): 3.44
Raw data (confluence at 72 h/confluence at 0 h) (AsPC-1 cells; replicate R3, titrated drug dose 100 nM): 1.82
Raw data (confluence at 72 h/confluence at 0 h) (AsPC-1 cells; replicate R3, titrated drug dose 300 nM): 3.31
Raw data (confluence at 72 h/confluence at 0 h) (AsPC-1 cells; replicate R3, titrated drug dose 1000 nM): 1.82
Raw data (confluence at 72 h/confluence at 0 h) (AsPC-1 cells; replicate R3, titrated drug dose 3000 nM): 0.98
Raw data (confluence at 72 h/confluence at 0 h) (AsPC-1 cells; replicate R3, titrated drug dose 10000 nM): 1.08
Raw data (confluence at 72 h/confluence at 0 h) (AsPC-1 cells; replicate R1, titrated drug dose 3 nM): 3.58
Raw data (confluence at 72 h/confluence at 0 h) (AsPC-1 cells; replicate R1, titrated drug dose 10 nM): 3.42
Raw data (confluence at 72 h/confluence at 0 h) (AsPC-1 cells; replicate R1, titrated drug dose 30 nM): 3.67
Raw data (confluence at 72 h/confluence at 0 h) (AsPC-1 cells; replicate R1, titrated drug dose 100 nM): 3.44
Raw data (confluence at 72 h/confluence at 0 h) (AsPC-1 cells; replicate R1, titrated drug dose 300 nM): 3.48
Raw data (confluence at 72 h/confluence at 0 h) (AsPC-1 cells; replicate R1, titrated drug dose 1000 nM): 1.39
Raw data (confluence at 72 h/confluence at 0 h) (AsPC-1 cells; replicate R1, titrated drug dose 3000 nM): 1.11
Raw data (confluence at 72 h/confluence at 0 h) (AsPC-1 cells; replicate R1, titrated drug dose 10000 nM): 1.24
Raw data (confluence at 72 h/confluence at 0 h) (AsPC-1 cells; replicate R2, titrated drug dose 3 nM): 3.47
Raw data (confluence at 72 h/confluence at 0 h) (AsPC-1 cells; replicate R2, titrated drug dose 10 nM): 3.62
Raw data (confluence at 72 h/confluence at 0 h) (AsPC-1 cells; replicate R2, titrated drug dose 30 nM): 3.68
Response (AsPC-1 cells; GEM 0 nM, ATRi 30 nM): 3.26 and 3.50 and 3.35
Response (AsPC-1 cells; GEM 0 nM, ATRi 300 nM): 3.38 and 2.28 and 2.67
Response (AsPC-1 cells; GEM 1 nM + ATRi 30 nM): 3.40 and 3.47 and 3.32
Response (AsPC-1 cells; GEM 1 nM + ATRi 100 nM): 3.25 and 2.45 and 2.30
Response (AsPC-1 cells; GEM 1 nM + ATRi 300 nM): 3.17 and 2.72 and 2.68
Response (AsPC-1 cells; GEM 3 nM + ATRi 30 nM): 3.21 and 3.37 and 3.20
Response (AsPC-1 cells; GEM 3 nM + ATRi 100 nM): 3.16 and 3.42 and 3.23
Response (AsPC-1 cells; GEM 3 nM + ATRi 300 nM): 3.33 and 2.50 and 2.49
Response (AsPC-1 cells; GEM 10 nM + ATRi 30 nM): 3.02 and 3.24 and 3.22
Response (AsPC-1 cells; GEM 10 nM + ATRi 100 nM): 2.95 and 3.25 and 2.97
Response (AsPC-1 cells; GEM 10 nM + ATRi 300 nM): 2.69 and 2.35 and 2.32
Response (AsPC-1 cells; GEM 30 nM + ATRi 30 nM): 2.26 and 2.69 and 2.57
Response (AsPC-1 cells; GEM 30 nM + ATRi 100 nM): 2.27 and 2.08 and 1.96
Response (AsPC-1 cells; GEM 30 nM + ATRi 300 nM): 2.06 and 1.65 and 1.60
Response (AsPC-1 cells; GEM 100 nM + ATRi 30 nM): 1.68
Response (AsPC-1 cells; GEM 100 nM + ATRi 100 nM): 1.81 and 1.49 and 1.48
Response (AsPC-1 cells; GEM 100 nM + ATRi 300 nM): 1.53 and 1.40 and 1.31
Response (AsPC-1 cells; GEM 300 nM + ATRi 30 nM): 1.65 and 1.49
Response (AsPC-1 cells; GEM 300 nM + ATRi 100 nM): 1.60 and 1.52 and 1.44
Response (AsPC-1 cells; GEM 300 nM + ATRi 300 nM): 1.48 and 1.38 and 1.24
Response (AsPC-1 cells; GEM 1000 nM + ATRi 30 nM): 1.43 and 1.48
Response (AsPC-1 cells; GEM 1000 nM + ATRi 100 nM): 1.53 and 1.41 and 1.39
Response (AsPC-1 cells; GEM 1000 nM + ATRi 300 nM): 1.41 and 1.36 and 1.30
Response (AsPC-1 cells; GEM 3000 nM + ATRi 30 nM): 1.40 and 1.48
Response (AsPC-1 cells; GEM 3000 nM + ATRi 100 nM): 1.58 and 1.38 and 1.33
Response (AsPC-1 cells; GEM 3000 nM + ATRi 300 nM): 1.46 and 1.27
EC50 (AsPC-1 cells; ASPC1, 72 h, AsPC1, Experiment ATRi (ATR inhibitor alone), single replicates R1-R3): 647 nM
EC50 (AsPC-1 cells; ASPC1, 72 h, read-out: EC50 (cell growth), ATR inhibitor as single agent): 766 nM
EC50 (AsPC-1 cells; ASPC1, 72 h, read-out: EC50 mean [nM], AsPC1, Experiment ATRi (ATR inhibitor alone), mean of replicates): 719 nM
EC50 (AsPC-1 cells; ASPC1, 72 h, read-out: pEC50, AsPC1 (converted), Experiment ATRi (ATR inhibitor alone), single replicates R1-R3): 646 nM
EC50 (AsPC-1 cells; ASPC1, read-out: EC50 mean [nM], AsPC1, Experiment ATRi (ATR inhibitor alone), mean of replicates): 719 nM
EC50 (PANC-1 cells; PANC-1, 72 h, read-out: EC50 mean [nM], PANC-1, experiment ATRi (ATR inhibitor alone), mean of replicates): 22200 nM
EC50 (PANC-1 cells; PANC-1, PANC-1, experiment ATRi (ATR inhibitor alone), replicates R1-R3): 31800 nM
EC50 (PANC-1 cells; PANC-1, PANC-1, experiment GEM+ATRi_dose1, replicates R1-R3): 4.75 nM
EC50 (PANC-1 cells; PANC-1, PANC-1, experiment GEM+ATRi_dose2, replicates R1-R3): 6.05 nM
EC50 (PANC-1 cells; PANC-1, PANC-1, experiment GEM+ATRi_dose3, replicates R1-R3): 3.25 nM
EC50 (PANC-1 cells; PANC-1, read-out: EC50 mean [nM], PANC-1, experiment ATRi (ATR inhibitor alone), mean of replicates): 22200 nM
EC50 (PANC-1 cells; PANC-1, read-out: EC50 mean [nM], PANC-1, experiment GEM+ATRi_dose1, mean of replicates): 4.43 nM
EC50 (PANC-1 cells; PANC-1, read-out: EC50 mean [nM], PANC-1, experiment GEM+ATRi_dose2, mean of replicates): 5.92 nM
EC50 (PANC-1 cells; PANC-1, read-out: EC50 mean [nM], PANC-1, experiment GEM+ATRi_dose3, mean of replicates): 4.05 nM
EC50 (PANC-1 cells; PANC-1, read-out: pEC50, PANC-1 (converted), experiment ATRi (ATR inhibitor alone), -log10 of EC50 [M]): 31600 nM
EC50 (PANC-1 cells; PANC-1, read-out: pEC50, PANC-1 (converted), experiment GEM+ATRi_dose1, replicates R1-R3, -log10 of EC50 [M]): 4.79 nM
EC50 (PANC-1 cells; PANC-1, read-out: pEC50, PANC-1 (converted), experiment GEM+ATRi_dose2, replicates R1-R3, -log10 of EC50 [M]): 6.03 nM
EC50 (PANC-1 cells; PANC-1, read-out: pEC50, PANC-1 (converted), experiment GEM+ATRi_dose3, replicates R1-R3, -log10 of EC50 [M]): 3.24 nM
Curve bottom (PANC-1 cells; experiment ATRi (ATR inhibitor alone)): 1.01 and 0.99
Curve top (PANC-1 cells; experiment GEM+ATRi_dose1): 0.60 and 0.57
Curve top (PANC-1 cells; experiment GEM+ATRi_dose2): 0.57 and 0.55
Curve bottom (PANC-1 cells; experiment GEM+ATRi_dose3): 0.93 and 0.91
Curve top (PANC-1 cells; experiment GEM+ATRi_dose3): 0.55 and 0.54
